This note sets out measurements from patent US8304211B2, “Methods of screening molecular libraries and active molecules identified thereby” (priority 2002, dated 2012).

Starred links: 1 amine or outer side, 2 acyl side, 3 side chain; linkers in the order of their positions; H or OH if unused. Residues, ends and D or L forms follow the SMILES beside them. Groups on a side chain read outwards from the residue. *: point of attachment. Pteroyl = Nc1nc2ncc(CNc3ccc(C(=O)*)cc3)nc2c(=O)[nH]1; γGlu = O=C(O)[C@H](CCC(=O)[*:2])N[*:1]

For one data set, the system named is SW480 cells. Kind of data set: Dose response in SW480. The following applies: 2 days. Format: cell-based, human. The method, then: 1. Dissolve the drug at a concentration of 10 mg/ml in PBS.
3. A confluent flask of SW480 cells was treated with trypsin and the cells were suspended in growth media at concentrations of 5×10^5 cells/ml.
5. Incubate at 37° C., 5% CO2 for 2 days.

A further data set has as its system normal human lymphocytes. The conditions noted are these: 3.125-800 g/ml as printed, 2 days.
The test system of data set [1] is R273H/P309S p53 mutant in SW480.7 cells. The data set can be described thus: RT-PCR analysis of mRNA level of p53 transactivated genes. Format: cell-based, Homo sapiens (human). The following applies: ligand transfected SW480.7 compared with empty pCEP4 transfected SW480.7, RT-PCR. From the text:
Total RNA was collected, from two wells of one ligand transfected SW480.7 plate and one pCEP4 transfected SW480.7 plate each day on day 0, day 1, and day 2 after transfection. Thus RNA samples were harvested as SW480.7/Ligand-0 day, SW480.7/Ligand-1 day, SW480.7/Ligand-2 day, SW480.7/pCEP4-0 day, SW480.7/pCEP4-1 day, SW480.7/pCEP4-2 day. Protocol for total RNA extraction by TRIZOL® Reagent was according to that given by Life Technology:
First-Strand cDNA Synthesis • 1. For each RNA sample, combine the following reagents in a sterile 0.2-ml reaction tube:
• 2. Mix and spin the tube briefly. • 3. Incubate the tube at 70° C. in a thermal cycler for 2 min. • 4. Spin the tube briefly to collect contents at the bottom. Keep tube at room temperature. • 5. Add the following to each reaction tube:
• 6. Gently vortex and spin the tubes briefly. • 7. Incubate the tubes at 42° C. for 1 hr in an air incubator or cycler. • 8. Add 40 μl TE buffer (10 mM Tris (pH7.6), 1 mM EDTA) to dilute the first-strand reaction product. • 9. Heat tubes at 72° C. for 7 min to inactivate reverse transcriptase. • 10. Samples can be stored at −20° C. for up to three months. cDNA Amplification by PCR • 1. Preheat the PCR thermal cycler to 95° C. • 2. For each reaction, 5 μl of diluted first-strand cDNA and 5 μl of deionized water are added to a labeled 0.2-ml reaction tube. • 3. Prepare a master mix for all reaction tubes, plus one additional tube. For each reaction:
• 4. Mix by vortexing and spin the tube briefly. • 5. Aliquot 40 μl of the PCR Master Mix into each tube from Step 2. • 6. Cap the tube, and place it in the preheated thermal cycler. • 7. PCR was carried out using the following cycling parameters:
• 8. Electrophoreses 5 μl of each PCR reaction alongside 0.1 μg of 1-kb DNA ladder on a 1.2% agarose/EtBr gel in 1× TBE buffer. Results

The subject of a further data set is Saos-2 cells. The data set can be described thus: Validation of selected peptide ligand: cell proliferation/death after transfection. It counts as cell-based, Homo sapiens (human). The conditions noted are these: Saos-2 (p53 null), ligand expressed from pCEP4 plasmid, without puromycin selection. As to the method:
(§1) Cells SW480.7, U-2OS, and Sa-os2 were transfected with peptide ligand and pCEP4 parallelly using the calcium phosphate method.
(§2) After transfection, cells were cultured without drug selection and diluted at the ratio of 1:100 every five days. Cell proliferation status was closely observed until ligand transfected SW480.7 cells died out. Life staining with 0.4% trypan blue was applied to determine the death of the cells. Dead cells can not exclude the dye thus were stained blue. Living cells can pump the dye outside thus were not stained.

A further data set relates to U2-OS cells. The description is as above. Format: cell-based, Homo sapiens (human). The conditions noted are these: U2-OS (wild type p53), ligand expressed from pCEP4 plasmid, without puromycin selection. The method, then:
as §1, §2

In a further data set the test system is SW480.7 cells. The data set is described as above. It counts as cell-based, Homo sapiens (human). The conditions noted are these: SW480.7, ligand expressed from pCEP4 plasmid, 15 days without puromycin selection. The method, then: as §1, §2
In data set [2] the target is T1, TrpR(T44M) (Escherichia coli, UniProt P0A881, T44M). The conditions noted are these: peptide expressed from pPep plasmid, arabinose induced. The method, then:
(§3) A λRTLF culture containing pTrpRep(WT), pTrpRep(T44M), pTrprG85E, and pTrpRep(None) were transformed with one of pPep(MGFLR) or pPep(MGFWR), and grown in both BTTRG and BTTRA media to an OD of 0.6 at wavelength 600 at 30° C. with shaking. Two hundred microliters of cultures assayed for β-galactosidase levels at wavelength 405 nm as described in Fenton et al (1998) BBRC 242(1):71-78.
(§4) λRTLF cultures containing one of pTrpRep(WT), pTrpRep(T44M), pTrprG85E, or pTrpRep(None) were grown in BTTRG media supplemented with one of following synthesized peptides MGFLR, MGFWR, MGRRW, FLR, FWR at a concentration of 1 mM. The cultures were grown to an OD of 0.6 at wavelength 600 at 30° C. with shaking. Two hundred microlitres of cultures assayed for -galactosidase levels at wavelength 405 as described in Fenton et al (1998) supra.
The cultures were grown to an OD of 0.6 at wavelength 600 at 30° C. with shaking.

The target of another data set is TrpR (G85E) (Escherichia coli, UniProt P0A881, G85E). The conditions noted are these: peptide expressed from pPep plasmid. As to the method: as §3, §4
Data set [3] has as its target T1, TrpR(T44M). The conditions noted are these: arabinose induced expression, both in the presence and absence of tryptophan.
Method: RNA was electophoresed through a 1% formaldehyde gel according to Sambrooke et al's Manual (1989). The gel was capillary blotted onto nitrocellulose filter paper using the standard protocols. RNA was UV crosslinked by 45 seconds of UV exposure. The filter was prehydridised for 3 hours at 65 C and then hybridised for 36 hours at 65° C. Hybridisation buffers were in accordance with Sambrook. The filter was dried at room temperature and placed in a phosphoimager cassette overnight. The filter was then scanned by Molecular Dynamics phosphoimager 400e (880 E. Argues Ave, Sunnyvale Calif. 94086).

Method for normal human lymphocytes: Growth media used is the RPMI-1640 (Gibco Laboratories, Grand Island, N.Y.) supplemented with 25 mM Hepes buffer, 10% FBS serum (Gibco), 100 U/ml penicillin/streptomycin, 50 μg/ml gentamycin, 2 mM L-glutamin, 1× nonessential amino acids (Gibco)
In a 50-ml centrifugation tube, add 10 ml of Lymphoprep™. 2. Mix 15 ml blood and 15 ml HBSS-buffer (containing heparin). 3. Carefully add the blood mixture from step 2, to the tubes containing Lymphoprep™ without mixing the phases. 4. Centrifuge at 450 g at room temperature for 45 min. 5. Isolate the Buffy-coat layer containing the PBMC (peripheral blood mononuclear cells), and place in a fresh tube. 6. Add 7 ml HBSS-buffer to the tube to wash the PBMC. 7. Centrifuge 5-10 min 600 g. 8. Remove the supernatant and wash the PBMC again with a total of 10-ml HBSS-. 9. Suspend the cells in complete media RPMI 1640. Incubate the cells in a small culture flask for 1 hour at 37° C. 10. Remove the unattached cells (lymphocytes) from the small culture flask and dilute the cells to a concentration of 5×10^5 cell/ml. 11. Dissolve drug at 10 mg/ml in PBS. 12. Add 100 μl of growth media to the rest of the wells. 13. Prepare 100 l of a series of concentration of 1600, 800, 400, 200, 100, 50, 25, 12.5, 6.25 μg/ml were made. Triplicate wells were used for each concentration as well as the control (0.0 g/ml), for each of Drug1, 2 and 3. 14. […]

`CSCC[C@H](N)C(=O)NCC(=O)N[C@@H](Cc1c[nH]c2ccccc12)C(=O)N[C@@H](CS)C(=O)N[C@H](C(=O)N[C@@H](CCCCNC(=O)CC[C@H](NC(=O)c1ccc(NCc2cnc3nc(N)[nH]c(=O)c3n2)cc1)C(=O)O)C(=O)O)[C@@H](C)O` [Drug 2, MGWCT-K-Folic] (H-MGWCTK([γGlu-Pteroyl])-OH; N-terminus and C-terminus assumed): the “Activity on metastatic cancer cells SW480 (number of surviving cells)” value with SW480 cells (3.125-800 μg/ml) is given as “best results”. In addition, the “IC50 as molar amount per well” value in the data set with SW480 cells (SW480 cells) is on record as 0.0257 μmol/well. Also, the “Effect on normal human lymphocytes (number of surviving cells)” value in the data set on normal human lymphocytes is recorded as “no effect”.

Consider “MGWCT (peptide derivative) [Drug 3, Penta-peptide, no folate conjugation]”, for which, in data set [1], the “mRNA level of 14-3-3σ” value is “much higher”, the “mRNA level of CD95” value is listed as “much higher” and the “mRNA level of p21 (WAF1/Cip1)” value is “much higher”. In addition, the “Cell status after transfecting the ligand” value (“Cell status” below) in the data set on Saos-2 cells is listed as “growing well”. In addition, in the data set on U2-OS cells, the “Cell status” value is given as “growing well”. In addition, the “Cell status” value in the data set with SW480.7 cells is “could no longer attach to the wall and died”.

Turning to MGFLR, the “Restoration of TrpR(T44M) function (β-galactosidase activity)” value on TrpR(T44M) [2] was “restored TrpR(T44M) function”. For the same molecule, the “Restoration of TrpR mutant G85E function (β-galactosidase activity)” value on TrpR (G85E) is “did not restore”. For the same molecule, on TrpR(T44M) [3], the “Transcription of LacZ” value is given as “repressed” and the “Transcription of PheS” value is “repressed”.

Turning to MGFWR, the “Restoration of TrpR(T44M) function (β-galactosidase activity)” value at TrpR(T44M) [2] was “restored TrpR(T44M) function”. The “Restoration of TrpR mutant G85E function (β-galactosidase activity)” value at TrpR (G85E) is “did not restore”.
